In assay [1] the test system is 3-deoxy-D-arabinoheptulonic acid-7-phosphate synthetase (DS) of Brevibacterium lactofermentum AJ 12181(AJ 12036/pAR-1). Put plainly: DS activity of crude enzyme solution with amino acids added, strain AJ 12181 (AJ 12036/pAR-1). To be noted: 1 mM each; crude enzyme of AJ 12181 (AJ 12036/pAR-1); activity with none added = 100%.
For assay [2], the system named is 3-deoxy-D-arabinoheptulonic acid-7-phosphate synthetase (DS) of Brevibacterium lactofermentum AJ 12182(AJ 12036/pAR-2). Put plainly: DS activity of crude enzyme solution with amino acids added, strain AJ 12182 (AJ 12036/pAR-2). To be noted: 1 mM each; crude enzyme of AJ 12182 (AJ 12036/pAR-2); activity with none added = 100%.
Assay [3] deals with 3-deoxy-D-arabinoheptulonic acid-7-phosphate synthetase (DS) of Brevibacterium lactofermentum AJ 11957. Briefly: DS activity of crude enzyme solution with amino acids added, strain AJ 11957. To be noted: 1 mM each; crude enzyme of AJ 11957; activity with none added = 100%.
Assay [4] relates to 3-deoxy-D-arabinoheptulonic acid-7-phosphate synthetase (DS) of Brevibacterium lactofermentum AJ 12036. Briefly: DS activity of crude enzyme solution with amino acids added, strain AJ 12036. The following applies: 1 mM each; crude enzyme of AJ 12036; activity with none added = 100%.
Assay [5] concerns Brevibacterium lactofermentum AJ 12036 transformed with pAR-1 and pAR-2. Put plainly: Sensitivity of retransformants to m-fluorophenylalanine. The format is cell-based. The following applies: 50 chloramphenicol-resistant retransformants of AJ 12036 with pAR-1 and pAR-2. How it is done: After culturing at 30° C. for 2 weeks, about 25000 colonies resistant to chloramphenicol appeared, which were replicated in minimal medium (which contained 2% of glucose, 1% of ammonium sulfate, 0.3% of urea, 0.1% of KH2 PO4, 0.04% of MgSO4 ·7H2 O, 2 ppm of iron ions, 2 ppm of manganese ions, […] of thiamine hydrochloride, 50 μg/ml of biotin, 500 μg/ml of m-fluorophenylalanine and 10 μg/ml of chloramphenicol, pH 7.0, 1.8% of agar) to obtain 5 strains resistant to chloramphenicol and m-fluorophenylalanine.
In order to confirm that the gene was present on the recombinant plasmid carrying the DNA fragment, Brevibacterium lactofermentum AJ 12036 was again transformed using the plasmids pARl and pAR-2.
Clearly the genes imparting the m-fluorophenylalanine resistance were present on the above-described plasmids.

Turning to `N[C@@H](Cc1ccccc1)C(=O)O` [Phenylalanine, phenylalanine], the “Residual Activity When Each Amino Acid Was Added” value in assay [1] worked out at 112%; in assay [2], 99%; in assay [3] it was 107%; in assay [4] it was 94%.

Turning to `N[C@@H](Cc1ccc(O)cc1)C(=O)O` [Tyrosine, tyrosine], the “Residual Activity When Each Amino Acid Was Added” value in assay [1] is 109%; in assay [2], 88%; in assay [4] it was 51%.

For `N[C@@H](Cc1cccc(F)c1)C(=O)O` [m-fluorophenylalanine], in assay [5], the sensitivity to m-fluorophenylalanine entry is “All of the strains demonstrated m-fluorophenylalanine resistance”.
